Data taken from US8344027B2, “4-dimethylaminobutyric acid derivatives” (Hoffmann-La Roche Inc., priority 2008, dated 2013).

Columns and labels:
hL-CPT1 = target: T1, hL-CPT1 (Homo sapiens, UniProt P50416); test: liver CPT1 inhibition, spectrophotometric DTNB (Ellman's reagent) assay; assay type: biochemical; conditions: human liver CPT1 expressed in P. pastoris, cell extract; carnitine 500 μM, palmitoyl-CoA 80 μM, DTNB 300 μM
T1 construct: made in house; host or cells: Pichia pastoris strain X-33
T1 sequence (P50416 1-773): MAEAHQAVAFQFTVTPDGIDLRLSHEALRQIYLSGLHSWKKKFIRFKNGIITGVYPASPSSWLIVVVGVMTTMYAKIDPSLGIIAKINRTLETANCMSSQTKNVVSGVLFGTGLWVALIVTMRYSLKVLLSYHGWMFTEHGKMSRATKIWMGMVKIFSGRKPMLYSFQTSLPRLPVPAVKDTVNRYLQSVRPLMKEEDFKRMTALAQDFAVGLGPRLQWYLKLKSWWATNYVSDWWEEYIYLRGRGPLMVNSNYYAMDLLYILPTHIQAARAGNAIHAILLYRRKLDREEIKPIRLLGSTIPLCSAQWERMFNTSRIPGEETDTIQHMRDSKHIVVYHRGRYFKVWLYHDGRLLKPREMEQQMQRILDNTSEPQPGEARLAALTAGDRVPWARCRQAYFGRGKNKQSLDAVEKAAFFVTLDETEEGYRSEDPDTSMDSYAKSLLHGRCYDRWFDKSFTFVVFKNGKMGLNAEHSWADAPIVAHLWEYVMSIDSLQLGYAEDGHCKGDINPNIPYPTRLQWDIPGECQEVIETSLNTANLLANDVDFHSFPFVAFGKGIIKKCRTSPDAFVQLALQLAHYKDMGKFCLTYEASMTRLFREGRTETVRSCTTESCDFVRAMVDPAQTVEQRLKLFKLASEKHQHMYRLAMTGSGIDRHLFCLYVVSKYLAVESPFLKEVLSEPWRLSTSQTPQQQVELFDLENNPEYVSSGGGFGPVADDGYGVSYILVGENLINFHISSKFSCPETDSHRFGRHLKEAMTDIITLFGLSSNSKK
Procedure: (§1) The following tests were carried out in order to determine the activity of the compounds of the present invention. Background information on the performed assays can be found in: Jackson et al., 1999, Biochem. J. 341, 483-489 and Jackson et al., 2000, J. Biol. Chem. 275, 19560-19566.
(§2) Human and rat CPT2- and liver CPT1 cDNAs, and human muscle CPT1 cDNA were subcloned in pGAPZB or pGAPZA, respectively. These plasmids were used to transform P. pastoris strain X-33 via electroporation after the preparation of electrocompetent cells. High copy number clones were selected where necessary using 0.5 or 1 mg/ml Zeocin. Cultures for activity measurements were induced for 16 h in YPD medium (1% yeast extract, 2% peptone, 2% glucose). Crude cell extracts were prepared by disrupting the cells with glass beads or French Press, depending on fermenter sizes. After centrifugation, the cell-free extracts were resuspended in cell breaking buffer (50 mM Tris, pH7.4, 100 mM KCl, 1 mM EDTA) in the presence of a protease inhibitor cocktail, before aliquoting and freezing at −20° C.
(§3) CPT activity was measured using a spectrophotometric assay using 5,5′-dithio-bis-(2-nitrobenzoic acid) (DTNB) also called Ellman's reagent. The HS-CoA released on the formation of acylcarnitine from carnitine (500 μM) and palmitoyl-CoA (80 μM) reduced DTNB (300 μM) forming 5-mercapto-2-nitrobenzoic acid which absorbed at 410 nm with a molar extinction coefficient of 13600 M^−1cm^−1. The assay buffer contained 120 mM KCl, 25 mM Tris, pH 7.4, 1 mM EDTA. This assay was used for the identification of CPT inhibitors, particularly/preferentially CPT2-selective inhibitors, versus the liver and muscle CPT1 isoforms.

hCPT2 = target: T2, hCPT2 (Homo sapiens, UniProt P23786); test: CPT2 inhibition, spectrophotometric DTNB (Ellman's reagent) assay; assay type: biochemical; conditions: human CPT2 expressed in P. pastoris, cell extract; carnitine 500 μM, palmitoyl-CoA 80 μM, DTNB 300 μM
T2 construct: made in house; host or cells: Pichia pastoris strain X-33
T2 sequence (P23786 26-658): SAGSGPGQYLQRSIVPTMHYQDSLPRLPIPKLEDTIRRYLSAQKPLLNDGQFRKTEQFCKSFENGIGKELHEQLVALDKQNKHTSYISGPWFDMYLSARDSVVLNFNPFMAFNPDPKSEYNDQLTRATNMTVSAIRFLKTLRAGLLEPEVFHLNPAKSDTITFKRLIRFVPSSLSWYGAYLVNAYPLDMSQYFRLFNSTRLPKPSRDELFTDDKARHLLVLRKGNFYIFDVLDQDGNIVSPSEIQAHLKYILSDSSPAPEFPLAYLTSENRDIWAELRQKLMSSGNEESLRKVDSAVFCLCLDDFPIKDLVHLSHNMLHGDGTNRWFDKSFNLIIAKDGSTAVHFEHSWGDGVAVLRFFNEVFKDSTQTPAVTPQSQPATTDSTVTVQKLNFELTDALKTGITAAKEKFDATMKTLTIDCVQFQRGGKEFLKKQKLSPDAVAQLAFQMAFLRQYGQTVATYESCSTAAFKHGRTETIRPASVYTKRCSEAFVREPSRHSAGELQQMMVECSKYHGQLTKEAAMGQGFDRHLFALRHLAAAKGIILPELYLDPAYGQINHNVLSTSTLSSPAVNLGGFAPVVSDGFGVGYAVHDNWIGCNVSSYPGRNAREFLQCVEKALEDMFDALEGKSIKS
Procedure: as §1, §2, §3

Row | IC50 (hL-CPT1) | IC50 (hCPT2) | SMILES
1 | 1150 nM | 400 nM | COc1ccc(OCCCCCCCCC(=O)N[C@H](CC(=O)O)CN(C)C)cc1OC [Example 26, (R)-3-[9-(3,4-Dimethoxy-phenoxy)-nonanoylamino]-4-dimethylamino-butyric acid]
2 | 2190 nM | 170 nM | CN(C)C[C@@H](CC(=O)O)NC(=O)CCCCCCCCOc1ccc(C(F)(F)F)cc1 [Example 27, (R)-4-Dimethylamino-3-[9-(4-trifluoromethyl-phenoxy)-nonanoylamino]-butyric acid]
3 | 5440 nM | 15 nM | COc1ccc(OCCCCCCCCC(=O)N[C@H](CC(=O)O)CN(C)C)cc1 [Example 28, (R)-4-Dimethylamino-3-[9-(4-methoxy-phenoxy)-nonanoylamino]-butyric acid]
4 | > 10000 nM | 160 nM | CN(C)C[C@@H](CC(=O)O)NC(=O)CCCCCCCCOc1cccc2ccccc12 [Example 29, (R)-4-Dimethylamino-3-[9-(naphthalen-1-yloxy)-nonanoylamino]-butyric acid]
5 | 2410 nM | 58 nM | CN(C)C[C@@H](CC(=O)O)NC(=O)CCCCCCCCOc1ccccc1 [Example 31, (R)-4-Dimethylamino-3-(9-phenoxy-nonanoylamino)-butyric acid]
6 | 7020 nM | 143 nM | CN(C)C[C@@H](CC(=O)O)NC(=O)CCCCCCCCCc1ccccc1 [Example 32, (R)-4-Dimethylamino-3-(10-phenyl-decanoylamino)-butyric acid]
7 | > 10000 nM | 948 nM | CN(C)C[C@H](CC(=O)O)NC(=O)CCCCCCCCCc1ccccc1 [Example 33, (S)-4-Dimethylamino-3-(10-phenyl-decanoylamino)-butyric acid]
8 | 4320 nM | 122 nM | CN(C)C[C@@H](CC(=O)O)NC(=O)CCCCCCCCCc1ccc(F)cc1 [Example 34, (R)-4-Dimethylamino-3-[10-(4-fluoro-phenyl)-decanoylamino]-butyric acid]
9 | 3590 nM | 46 nM | CN(C)C[C@@H](CC(=O)O)NC(=O)CCCCCCCCCc1ccccc1F [Example 35, (R)-4-Dimethylamino-3-[10-(2-fluoro-phenyl)-decanoylamino]-butyric acid]
10 | > 10000 nM | 317 nM | Cc1ccc(C)c(CCCCCCCCCC(=O)N[C@H](CC(=O)O)CN(C)C)c1 [Example 36, (R)-4-Dimethylamino-3-[10-(2,5-dimethyl-phenyl)-decanoylamino]-butyric acid]
11 | > 10000 nM | 241 nM | Cc1cccc(C)c1CCCCCCCCCC(=O)N[C@H](CC(=O)O)CN(C)C [Example 37, (R)-4-Dimethylamino-3-[10-(2,6-dimethyl-phenyl)-decanoylamino]-butyric acid]
12 | 6910 nM | 17 nM | COc1ccc(CCCCCCCCCC(=O)N[C@H](CC(=O)O)CN(C)C)cc1 [Example 38, (R)-4-Dimethylamino-3-[10-(4-methoxy-phenyl)-decanoylamino]-butyric acid]
13 | > 10000 nM | 3 nM | CN(C)C[C@@H](CC(=O)O)NC(=O)CCCCCCCCCc1cccc2ccccc12 [Example 39, (R)-4-Dimethylamino-3-(10-naphthalen-1-yl-decanoylamino)-butyric acid]
14 | 6550 nM | 44 nM | CN(C)C[C@@H](CC(=O)O)NC(=O)CCCCCCCCCc1ccc(C(F)(F)F)cc1 [Example 40, (R)-4-Dimethylamino-3-[10-(4-trifluoromethyl-phenyl)-decanoylamino]-butyric acid]
15 | 7720 nM | 98 nM | CN(C)C[C@@H](CC(=O)O)NC(=O)CCCCCCCCCc1cccc(F)c1 [Example 41, (R)-4-Dimethylamino-3-[10-(3-fluoro-phenyl)-decanoylamino]-butyric acid]
16 | 2340 nM | 22 nM | CN(C)C[C@@H](CC(=O)O)NC(=O)CCCCCCCCCc1cccc(F)c1F [Example 42, (R)-3-[10-(2,3-Difluoro-phenyl)-decanoylamino]-4-dimethylamino-butyric acid]
17 | 7310 nM | 118 nM | CN(C)C[C@@H](CC(=O)O)NC(=O)CCCCCCCCCc1ccsc1 [Example 43, (R)-4-Dimethylamino-3-(10-thiophen-3-yl-decanoylamino)-butyric acid]
18 | > 10000 nM | 1060 nM | CN(C)C[C@@H](CC(=O)O)NC(=O)CCCCCCCCCc1cncs1 [Example 44, (R)-4-Dimethylamino-3-(10-thiazol-5-yl-decanoylamino)-butyric acid]
19 | > 10000 nM | 2100 nM | CN(C)C[C@@H](CC(=O)O)NC(=O)CCCCCCCCCCc1ccccc1 [Example 50, (R)-4-Dimethylamino-3-(11-phenyl-undecanoylamino)-butyric acid]
20 | 1060 nM | 184 nM | CN(C)C[C@@H](CC(=O)O)NC(=O)CCCCCCCCCCCc1ccccc1 [Example 51, (R)-4-Dimethylamino-3-(12-phenyl-dodecanoylamino)-butyric acid]
21 | 2870 nM | 332 nM | CN(C)C[C@@H](CC(=O)O)NC(=O)NCCCCCCCCCc1ccccc1 [Example 63, (R)-4-Dimethylamino-3-[3-(9-phenyl-nonyl)-ureido]-butyric acid]
